From patent US20040072750A1, “Compounds and methods for the modulation of CD154” (priority 2001, published 2004)

How the values were obtained:
Type in all cases: cell-based, human
[1] = tested on: washed platelets; assay: sCD40L release from TRAP activated, not aggregated washed platelets (ELISA); conditions: for release of sCD40L from TRAP activated, but not aggregated, platelets: 50 μM, FIG. 3; for release of sCD154 from TRAP-stimulated platelets: 5-50 μM inhibitor, 5 μM TRAP, no rocking
Description: Washed platelets were prepared from blood drawn into ⅙^th volume of ACD containing (85 mM sodium citrate, 111 mM dextrose and 71 mM citric acid) with 0.05 μg/ml PGI2. Collected blood was centrifuged at 160×g for 20 minutes at room temperature (Beckman GP) and the PRP layer was collected. PRP was then centrifuged at 1100×g for 10 minutes to sediment platelets. Platelets were washed twice by repeat suspending and pelleting in CGS (13 mM trisodium citrate, 120 mM NaCl, 30 mM Dextrose, pH 7.0) containing 0.05 μg/ml PGI2 for the first wash. The final suspension of platelets (5×10^8/ml) was in Tyrode's Hepes.
The release of sCD40L from the activated platelets was determined as follows: 500 μL of washed platelets were gently mixed 5 μM of TRAP and incubated at 37° C. without rocking for 30 min. Under this condition, platelets were activated but not aggregated. 5-50 μM of metalloproteinase inhibitors GM6001 (Galardin, Calbiochem) or TAPI-1 (Peptides International) were added to the washed platelets before the addition of TRAP. Platelets were removed from suspension by centrifugation for 10 minutes at 15,000×g, 4° C. and the resulting supernatants were collected. The levels of sCD154 were measured by ELISA.

[2] = tested on: washed platelets; assay: Cleavage of CD40L into sCD40L in platelet lysates (immunoblotting); conditions: TRAP 5 μM; activated or aggregated platelets; FIG. 4
Description: Collected blood was centrifuged at 160×g for 20 minutes at room temperature (Beckman GP) and the PRP layer was collected. PRP was then centrifuged at 1100×g for 10 minutes to sediment platelets. Platelets were washed twice by repeat suspending and pelleting in CGS (13 mM trisodium citrate, 120 mM NaCl, 30 mM Dextrose, pH 7.0) containing 0.05 μg/ml PGI2 for the first wash. The final suspension of platelets (5×10^8/ml) was in Tyrode's Hepes.
Cleavage of the full length CD40L (32 kD) yields the 18 kD soluble from (sCD40L). 500 μl of Washed platelets were gently mixed with TRAP (5 μM) to initiate the platelet activation. Metalloproteinase inhibitors GM6001 (50 μM, Calbiochem) or DMSO were added to washed platelets, and incubated at 37° C. with or without rocking for 30 minutes. […] Platelets were removed from suspension by centrifugation for 10 minutes at 15,000×g, 4° C. and the resulting platelet pellets were dissolved in the loading buffer. The proteins in the platelet lysates were resolved with SDS-PAGE, transferred onto nitrocellulose membrane, and blotted with anti-CD40L antibody (MK13A4, Alexis).

[3] = tested on: washed platelets; assay: sCD154 release from TRAP6-stimulated washed platelets with rocking (ELISA); conditions: rocking 30 minutes, 37° C.
Description: (§1) Washed platelets were prepared from blood drawn into ⅙ th volume of ACD containing (85 mM sodium citrate, 111 mM dextrose and 71 mM citric acid) with 0.05 μg/ml PGI2. Collected blood was centrifuged at 160×g for 20 minutes at room temperature (Beckman GP) and the PRP layer was collected. PRP was then centrifuged at 1100×g for 10 minutes to sediment platelets. Platelets were washed twice by resuspending in CGS (13 mM trisodium citrate, 120 mM NaCl, 30 mM Dextrose, pH 7.0) containing 0.05 μg/ml PGI2 for the first wash. The final suspension of platelets (3×10^8/ml) was in Tyrode's Hepes.
b. CD154 determinations were made as follows: Washed platelets were incubated at 37° C. with various concentrations of TIMP-2 and TAPI-1 (see above) while rocking on a Nutator for 30 minutes. Platelets or platelet aggregates were removed from suspension by centrifugation for 10 minutes at 15,000×g, 4° C. and the resulting supernatants were collected. The levels of sCD154 were measured by ELISA.

[4] = tested on: washed platelets; assay: TRAP6-induced aggregation of washed platelets (aggregometer); conditions: 1 μM TRAP6; 0.1-1.0 μg/ml TIMP-2 or 5-50 μM TAPI-1
Description: as §1
a. For platelet aggregation studies, 500 μL of washed platelets were allowed to stir in a Chrono-Log Aggregometer before the addition of 1 μM TRAP6 to initiate aggregation. Subsequent samples included various metalloproteinase inhibitors added to washed platelets before the addition of TRAP6; 0.1-1.0 μg/ml TIMP-2 (Calbiochem) or 5-50 μM TAPI-1 (Peptides International). Aggregation proceeded for 5 minutes and the amplitude of each aggregometer tracing was calculated by Aggro-Link software.

CNC(=O)[C@H](Cc1c[nH]c2ccccc12)NC(=O)[C@@H](CC(=O)NO)CC(C)C [GM6001, N-[(2R)-2-(Hydroxamidocarbonylmethyl)-4-methylpentanoyl]-L-tryptophan methylamide]
inhibited: release of sCD40L from TRAP activated, but not aggregated, platelets [1] | release of sCD154 from TRAP-stimulated platelets [1] | cleavage of the full length CD40L to the 18 kD soluble form [2]

CC(C)C[C@H](CC(=O)NO)C(=O)N[C@@H](Cc1ccc2ccccc2c1)C(=O)N[C@@H](C)C(=O)NCCN [TAPI-1, HONHCOCH2CH(CH2CH(CH3)2-CO-NaI-Ala-NHCH2CH2NH2]
inhibited: release of sCD154 from TRAP6-stimulated platelets [3] | release of sCD40L from TRAP activated, but not aggregated, platelets [1] | release of sCD154 from TRAP-stimulated platelets [1] | platelet aggregation induced by sub-optimal concentrations of TRAP6 [4]
